In patent US20030096237A1, “Determination of the ability of patients to respond to a tumor treatment” (priority 2000, published 2003):

Tested on: CNCM I-2545
Experiment: oligonucleotide array analysis of IFN-α modulated gene expression
Format: cell-based, human
Experimental: All these cell lines were cultured in RPMI medium supplemented with 10% FCS, glutamine (2 mM), sodium pyruvate (1 mM), non-essential amino acids and HEPES buffer (10 mM) (all from GIBCO Life Sciences, Paisley, UK). When confluent, the cells were passaged by trypsinization.
Cultured melanoma cells were harvested by scraping and total cellular RNA was extracted. 10 μg from each sample were used directly as templates for cDNA synthesis using a commercial kit (Roche Molecular Biochemicals, Rotkreuz, Switzerland). The T7 promoter sequence incorporated into the cDNA synthesis primer allowed template amplification and biotin labeling by in vitro transcription using a commercial kit (Affymetrix, Santa Clara, Calif.). After alkaline heat fragmentation […] was hybridised to the array (Affymetrix, Santa Clara, Calif.) and all subsequent steps were performed following standard procedures as supplied with the arrays. Raw data were collected with a confocal laser scanner (Hewlett Packard, Palo Alto, Calif.) using GeneChip software v3.1 (Affymetrix, Santa Clara, Calif.).
Raw data were normalized based on the total chip signal obtained upon hybridisation of ME15 cell line cDNA. This array was selected because: i) the 5′/3′ intensity ratio of control genes was smaller than 3; ii)>25% of the genes are called “present” by Genechip; iii) the image appearance is homogeneous with low background and no sign of mechanical chip damage.
The normalized average difference (nAD) between the signals of the perfect and of the mismatch probesets for each gene was used as the expression level of a given gene. At least one nAD value in a pairwise comparison of data has to exceed 50 to be included. Based on nAD, change factors related to IFN-α exposure were also calculated. Negative nAD values were set to 20 in order to avoid the calculation of artificially high modifications. In order to exclude artefacts, only genes with robust change factors, greater than 2-fold, were included in the analysis. […] Genes were clustered according to their mode of regulation.
Total cellular RNA was extracted from the sensitive and resistant melanoma cell lines identified above, reverse transcribed and processed for hybridization to an oligonucleotide array (Hu6800FL, PN 900183) containing probe sets derived from 7000 full-length human genes. Expression levels for each gene were calculated as normalized average difference (nAD, see materials and methods).
Patterns of genes expressed in IFN-α sensitive and resistant melanoma cell lines were investigated upon 48 hour culture in the presence of IFN-α. CNCM I-2546 and CNCM I-2545 were studied in detail.
In Table 2 below, CNCM I-2546 and CNCM I-2545 cultured for 48 hours in the absence or in the presence of 100 U/ml IFN-α were used to assay cytokine modulated gene expression as matched with data obtained in fibrosarcoma cells. This analysis yielded six clusters of genes. […] Data are presented as average difference of signal intensity between match and mismatch probesets.
In Table 3 below, CNCM I-2546 and CNCM I-2545 cell lines cultured for 48 hours in the absence or in the presence of 100 U/ml IFN-α were used to identify novel cytokine induced genes whose expression was not found to be modulated in fibrosarcoma cells. Cluster 1 includes genes inducible in the CNCM I-2546 sensitive but not in the CNCM I-2545 resistant cell line. Cluster 2 comprises genes inducible in both lines. Data are presented as average difference of signal intensity between match and mismatch probesets.

[1] = CNCM I-2545, IFN-α 100 U/ml 48 hours

change factor (CF) D32050 alanyl-trna synthetase [1]: −0.92
change factor (CF) D78132 rheb gene, ras-related gtp binding protein gene [1]: 1.88
change factor (CF) L13210 mac-2 binding protein [1]: −0.22
change factor (CF) L35249 vacuolar h + -atpase mr 56,000 subunit (ho57) [1]: 16.85
change factor (CF) L37043 casein kinase i epsilon [1]: 0.01
change factor (CF) L40387 thyroid receptor interactor (trip14) [1]: −4.2
change factor (CF) L42243 ifnar2 gene (interferon receptor) [1]: −2.1
change factor (CF) M19650 2′,3′-cyclic nucleotide 3prime-phosphodiesterase [1]: −0.38
change factor (CF) U18018 ela enhancer binding protein (ela-f) [1]: 0.15
change factor (CF) U47025 fetal brain glycogen phosphorylase b [1]: −0.45
change factor (CF) U50327 protein kinase c substrate 80k-h gene (prkcsh) [1]: −0.7
change factor (CF) U50648 interferon-inducible rna-dependent protein kinase (pkr) [1]: −1.3
change factor (CF) U65579 mitochondrial nadh dehydrogenase-ubiquinone [1]: −0.01
change factor (CF) U69126 fuse binding protein 2 (fbp2) [1]: 0.39
change factor (CF) U70063 human acid ceramidase [1]: 2.48
change factor (CF) U91316 acyl-coa thioester hydrolase [1]: 0.69
change factor (CF) X70848 protein phosphatase 1, catalytic subunit [1]: 8.42
change factor (CF) X90846 mixed lineage kinase 2 [1]: −4.95
change factor (CF) X95325 dna binding protein a variant [1]: −1.51
change factor (CF) Z26491 gene catechol o-methyltransferase [1]: −0.31
change factor (CF) Z47055 farnesyl pyrophosphate synthetase like [1]: 1.02
Substance: IFN-α
change factor (CF) D28137 bst-2 [1]: 1.38
change factor (CF) D49824 hla-b null allele [1]: −0.97
change factor (CF) D50914 EST [1]: −2
change factor (CF) HG658 major histocompatibility complex, class 1 c [1]: −1.6
change factor (CF) HG1612 macmarcks [1]: −0.16
change factor (CF) HG2917 major histocompatibility complex, class i, e [1]: −0.1
change factor (CF) J00105 beta-2 microglobulin gene [1]: 0.26
change factor (CF) J00212 leukocyte interferon (ifn-alpha) [1]: −4.3
change factor (CF) J03909 gamma-interferon-inducible protein (ip-30) [1]: 2.38
change factor (CF) J04164 interferon-inducible protein 27-sep [1]: 0
change factor (CF) J04182 lysosomal membrane glycoprotein-1 (lamp1) [1]: 6.33
change factor (CF) J04444 cytochrome c-1 gene [1]: 1.56
change factor (CF) K01900 lymphocyte interferon alpha type 201 [1]: −6.8
change factor (CF) K03515 neuroleukin [1]: −0.17
change factor (CF) L07633 interferon-gamma [1]: 11.5
change factor (CF) M13755 interferon-induced 17-kda/15-kda protein [1]: 0.55
change factor (CF) M30818 interferon-induced cellular resistance mediator protein [1]: 0
change factor (CF) M31013 nonmuscle myosin heavy chain (nmhc) [1]: −0.43
change factor (CF) M34338 spermidine synthase [1]: −0.7
change factor (CF) M60784 ul snrnp-specific protein [1]: 2.59
change factor (CF) M65028 heterogeneous nuclear ribonucleoprotein a/b [1]: 1.29
change factor (CF) M79462 pml-1 [1]: −9.05
change factor (CF) M92642 alpha-1 type xvi collagen (col16a1) [1]: 4.75
change factor (CF) M94880 mhc class i (hla-a*8001) [1]: −0.31
change factor (CF) M97935 transcription factor isgf-3 [1]: −2.6
change factor (CF) M98343 amplaxin (ems1) [1]: 2.15
change factor (CF) S81914 iex-1 = radiation-inducible immediate-early gene [1]: 0.05
change factor (CF) U01824 glutamate/aspartate transporter [1]: −8.69
change factor (CF) U09579 melanoma differentiation associated (mda-6) [1]: 0
change factor (CF) U18009 chromosome 17q21 clone lf113 [1]: −0.59
change factor (CF) U22970 16-jun gene, interferon-inducible peptide (6-16) [1]: 0.2
change factor (CF) U41515 dss1 [1]: 5.15
change factor (CF) U51127 interferon regulatory factor 5 [1]: −1.88
change factor (CF) U52513 rig-g [1]: −13.45
change factor (CF) U53830 interferon regulatory factor 7a [1]: −4.15
change factor (CF) U61263 acetolactate synthase homolog [1]: −0.36
change factor (CF) U65932 extracellular matrix protein 1 (ecm1) [1]: −1.34
change factor (CF) U72206 guanine nucleotide regulatory factor (lfp40) [1]: −0.47
change factor (CF) U72882 interferon-induced leucine zipper protein (ifp35) [1]: −3.63
change factor (CF) U78525 human eukaryotic translation initiation factor (eif3) [1]: 1.25
change factor (CF) X04412 plasma gelsolin [1]: 0
change factor (CF) X07730 prostate specific antigen [1]: −1.75
change factor (CF) X15949 interferon regulatory factor-2 (irf-2) [1]: 0
change factor (CF) X57351 1-8d gene from interferon-inducible gene family [1]: 0.09
change factor (CF) X57522 ring4 cdna [1]: −1.92
change factor (CF) X67325 p27 [1]: 0
change factor (CF) X76538 mpv17 [1]: −0.31
change factor (CF) X96401 rox protein [1]: −1.76
change factor (CF) Y00264 amyloid a4 precursor [1]: 0.09
change factor (CF) Z56281 interferon regulatory factor 3 [1]: −2
nAD D28137 bst-2 (Table 3, CNCM I-2545 (+) IFN-α 100 U/ml 48 hours, (−) 37): 88
change factor (CF) D28137 bst-2 (Table 3, CNCM I-2545, IFN-α 100 U/ml 48 hours): 1.38
